Measured values: paper PMC12373846, “Hemoglobin as a pseudoperoxidase and drug target for oxidative stress-related diseases” (Signal Transduction and Targeted Therapy, 2025)
“And” between values parts separate entries of the source, which are not always exact repeats. Identical values can stand only once. Like-named read-outs stand apart in the source and are kept apart here.

Columns and labels:
Experiment in all cases: SafetyScreen87 panel
[1] = molecular target: T1, 5-HT1A (h) (agonist radioligand) (Homo sapiens, UniProt P08908); conditions: 1.0E-06 M; mean; read-out: % Inhibition of Control Specific Binding (1st, 2nd, Mean)
T1 construct: purchased DiscoverX KINOMEscan scanEDGE; Eurofins Cerep SafetyScreen87
Description: (§1) The possibility of KDS12025 on kinase off-target, the KINOMEscan panel of scanEDGE assay was conducted in DiscoverX (CA, USA) using a site-directed competition binding with the test compounds. The assay results are given in Supplementary Table 4 and experimental information is available on the DiscoverX web page (www.discoverx.com). Moreover, the Delta SafetyScreen87 panel assay was conducted in Eurofins Discovery (Cerep, France). The assay results are given in Supplementary Table 5 and experimental information is available on the DiscoverX web page (https://www.eurofinsdiscoveryservices.com).

[2] = molecular target: T2, 5-HT1B (h) (antagonist radioligand) (Homo sapiens, UniProt P28222); conditions: 1.0E-06 M; mean; read-out: % Inhibition of Control Specific Binding (1st, 2nd, Mean)
T2 construct: purchased DiscoverX KINOMEscan scanEDGE; Eurofins Cerep SafetyScreen87
Description: as §1

[3] = molecular target: T3, 5-HT2A (h) (agonist radioligand) (Homo sapiens, UniProt P28223); conditions: 1.0E-06 M; mean; read-out: % Inhibition of Control Specific Binding (1st, 2nd, Mean)
T3 construct: purchased DiscoverX KINOMEscan scanEDGE; Eurofins Cerep SafetyScreen87
Description: as §1

[4] = molecular target: T4, B2 (h) (agonist radioligand) (Homo sapiens, UniProt P30411)
T4 construct: purchased DiscoverX KINOMEscan scanEDGE; Eurofins Cerep SafetyScreen87
T4 sequence (P30411 whole entry): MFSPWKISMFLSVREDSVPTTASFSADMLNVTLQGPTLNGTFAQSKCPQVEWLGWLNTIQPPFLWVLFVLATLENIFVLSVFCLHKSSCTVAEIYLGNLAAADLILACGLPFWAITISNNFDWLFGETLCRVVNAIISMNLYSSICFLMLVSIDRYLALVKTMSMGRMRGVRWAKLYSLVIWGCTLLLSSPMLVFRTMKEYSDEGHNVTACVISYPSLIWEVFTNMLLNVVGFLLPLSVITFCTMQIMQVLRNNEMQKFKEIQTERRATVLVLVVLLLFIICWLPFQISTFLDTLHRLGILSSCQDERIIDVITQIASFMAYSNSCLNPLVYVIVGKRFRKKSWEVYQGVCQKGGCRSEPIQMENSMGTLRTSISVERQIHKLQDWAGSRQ
Description: as §1

[5] = molecular target: T5, CCR1 (h) (agonist radioligand) (Homo sapiens, UniProt P32246)
T5 construct: purchased DiscoverX KINOMEscan scanEDGE; Eurofins Cerep SafetyScreen87
Description: as §1

[6] = molecular target: T6, CXCR2 (IL-8B) (h) (agonist radioligand) (Homo sapiens, UniProt P25025)
T6 construct: purchased DiscoverX KINOMEscan scanEDGE; Eurofins Cerep SafetyScreen87
Description: as §1

[7] = molecular target: T7, Ca2+ channel (N) (antagonist radioligand) (Rattus norvegicus, UniProt Q02294)
T7 construct: Eurofins Discovery (Cerep, France) SafetyScreen87 panel
Description: as §1

[8] = molecular target: T8, CysLT1 (LTD4) (h) (agonist radioligand) (Homo sapiens, UniProt Q9Y271); conditions: read-out: % Inhibition of Control Specific Binding (1st, 2nd, Mean); 1.0E-06 M
T8 construct: purchased DiscoverX KINOMEscan scanEDGE; Eurofins Cerep SafetyScreen87
Description: as §1

[9] = molecular target: T9, D2S (h) (agonist radioligand) (Homo sapiens, UniProt P14416); conditions: 1.0E-06 M, read-out: % Inhibition of Control Specific Binding (1st, 2nd, Mean)
T9 construct: purchased DiscoverX KINOMEscan scanEDGE; Eurofins Cerep SafetyScreen87
T9 sequence (P14416 1-414 isoform P14416-2): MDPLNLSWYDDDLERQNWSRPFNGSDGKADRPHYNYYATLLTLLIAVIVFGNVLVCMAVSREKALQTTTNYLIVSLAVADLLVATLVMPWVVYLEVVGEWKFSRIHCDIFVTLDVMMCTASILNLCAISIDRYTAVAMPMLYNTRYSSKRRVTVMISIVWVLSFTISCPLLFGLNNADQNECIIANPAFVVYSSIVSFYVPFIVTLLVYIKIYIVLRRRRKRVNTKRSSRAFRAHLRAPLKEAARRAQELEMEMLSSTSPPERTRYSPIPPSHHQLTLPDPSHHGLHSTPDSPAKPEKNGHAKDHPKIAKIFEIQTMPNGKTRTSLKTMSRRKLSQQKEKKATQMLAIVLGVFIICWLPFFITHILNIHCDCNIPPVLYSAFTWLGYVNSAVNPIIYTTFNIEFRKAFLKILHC
Description: as §1

[10] = tested on: GABA transporter (antagonist radioligand); conditions: 1.0E-06 M, read-out: % Inhibition of Control Specific Binding (1st, 2nd, Mean)
Description: as §1

[11] = molecular target: T10, GABAA1 (h) (alpha 1,beta 2,gamma 2) (agonist radioligand) (Homo sapiens, UniProt P14867+P47870); conditions: 1.0E-06 M, read-out: % Inhibition of Control Specific Binding (1st, 2nd, Mean)
T10 construct: purchased DiscoverX KINOMEscan scanEDGE; Eurofins Cerep SafetyScreen87
T10 sequence (P14867 28-456): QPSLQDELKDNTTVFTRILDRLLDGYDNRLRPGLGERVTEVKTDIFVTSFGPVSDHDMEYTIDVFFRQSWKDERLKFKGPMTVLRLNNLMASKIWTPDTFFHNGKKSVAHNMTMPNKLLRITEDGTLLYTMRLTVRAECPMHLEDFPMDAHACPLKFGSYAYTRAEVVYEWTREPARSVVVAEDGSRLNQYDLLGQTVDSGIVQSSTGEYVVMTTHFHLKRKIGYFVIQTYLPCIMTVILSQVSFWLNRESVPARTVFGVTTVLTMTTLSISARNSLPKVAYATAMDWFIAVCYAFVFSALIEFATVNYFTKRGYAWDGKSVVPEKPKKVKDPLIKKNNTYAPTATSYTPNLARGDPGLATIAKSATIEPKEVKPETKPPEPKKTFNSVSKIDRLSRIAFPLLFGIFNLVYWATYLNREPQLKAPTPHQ
T10 sequence (P47870 25-512 limits assumed): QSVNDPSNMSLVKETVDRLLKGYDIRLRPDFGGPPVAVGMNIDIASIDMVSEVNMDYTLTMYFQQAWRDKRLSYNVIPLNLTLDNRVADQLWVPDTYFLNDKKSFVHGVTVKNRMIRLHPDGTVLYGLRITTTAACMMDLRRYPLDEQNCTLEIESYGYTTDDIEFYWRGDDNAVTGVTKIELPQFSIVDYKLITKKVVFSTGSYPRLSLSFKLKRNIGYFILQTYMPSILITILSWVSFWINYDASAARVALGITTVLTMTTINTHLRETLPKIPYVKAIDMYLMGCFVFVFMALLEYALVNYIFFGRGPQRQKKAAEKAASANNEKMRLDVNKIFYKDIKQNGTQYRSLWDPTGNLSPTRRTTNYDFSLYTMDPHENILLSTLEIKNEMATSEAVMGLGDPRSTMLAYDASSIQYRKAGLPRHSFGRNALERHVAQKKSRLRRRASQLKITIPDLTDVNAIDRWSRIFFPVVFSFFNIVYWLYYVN
T10 sequence (P18507 40-467 partner limits assumed): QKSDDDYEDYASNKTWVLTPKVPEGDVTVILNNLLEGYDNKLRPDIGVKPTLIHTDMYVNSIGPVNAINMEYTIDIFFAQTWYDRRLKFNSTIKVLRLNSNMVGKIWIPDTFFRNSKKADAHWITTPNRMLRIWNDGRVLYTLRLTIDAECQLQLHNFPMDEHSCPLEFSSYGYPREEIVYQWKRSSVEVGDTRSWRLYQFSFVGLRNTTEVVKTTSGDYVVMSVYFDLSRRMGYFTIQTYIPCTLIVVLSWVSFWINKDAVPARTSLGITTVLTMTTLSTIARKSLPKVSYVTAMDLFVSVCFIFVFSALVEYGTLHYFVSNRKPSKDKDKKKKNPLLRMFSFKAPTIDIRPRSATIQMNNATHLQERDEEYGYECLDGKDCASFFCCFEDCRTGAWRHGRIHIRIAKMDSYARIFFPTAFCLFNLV
Description: as §1

[12] = molecular target: T11, H1 (h) (antagonist radioligand) (Homo sapiens, UniProt P35367); conditions: 1.0E-06 M; mean; read-out: % Inhibition of Control Specific Binding (1st, 2nd, Mean)
T11 construct: purchased DiscoverX KINOMEscan scanEDGE; Eurofins Cerep SafetyScreen87
Description: as §1

[13] = molecular target: T12, N neuronal alpha 4beta 2 (h) (agonist radioligand) (Homo sapiens, UniProt P17787+P43681); conditions: 1.0E-06 M; mean; read-out: % Inhibition of Control Specific Binding (1st, 2nd, Mean)
T12 construct: purchased DiscoverX KINOMEscan scanEDGE; Eurofins Cerep SafetyScreen87
Description: as §1

[14] = molecular target: T13, NK1 (h) (agonist radioligand) (Homo sapiens, UniProt P25103); conditions: 1.0E-06 M; mean; read-out: % Inhibition of Control Specific Binding (1st, 2nd, Mean)
T13 construct: purchased DiscoverX KINOMEscan scanEDGE; Eurofins Cerep SafetyScreen87
Description: as §1

[15] = tested on: NMDA (antagonist radioligand); conditions: 1.0E-06 M, read-out: % Inhibition of Control Specific Binding (1st, 2nd, Mean)
Description: as §1

[16] = tested on: Na+ channel (site 2) (antagonist radioligand); conditions: 1.0E-06 M, read-out: % Inhibition of Control Specific Binding (1st, 2nd, Mean)
Description: as §1

[17] = molecular target: T14, PAF (h) (agonist radioligand) (Homo sapiens, UniProt P25105); conditions: 1.0E-06 M; read-out: % Inhibition of Control Specific Binding (1st, 2nd, Mean)
T14 construct: purchased DiscoverX KINOMEscan scanEDGE; Eurofins Cerep SafetyScreen87
Description: as §1

[18] = molecular target: T15, PR (h) (agonist radioligand) (Homo sapiens, UniProt P06401); conditions: read-out: % Inhibition of Control Specific Binding (1st, 2nd, Mean); 1.0E-06 M
T15 construct: purchased DiscoverX KINOMEscan scanEDGE; Eurofins Cerep SafetyScreen87
Description: as §1

[19] = molecular target: T16, Y1 (h) (agonist radioligand) (Homo sapiens, UniProt P25929); conditions: read-out: % Inhibition of Control Specific Binding (1st, 2nd, Mean); 1.0E-06 M
T16 construct: purchased DiscoverX KINOMEscan scanEDGE; Eurofins Cerep SafetyScreen87
Description: as §1

[20] = molecular target: T17, adenosine transporter (antagonist radioligand) (Cavia porcellus, UniProt H0V4R7)
T17 construct: Eurofins Discovery (Cerep, France) SafetyScreen87 panel
Description: as §1

[21] = molecular target: T18, alpha 1A (h) (antagonist radioligand) (Homo sapiens, UniProt P35348); conditions: 1.0E-06 M, read-out: % Inhibition of Control Specific Binding (1st, 2nd, Mean)
T18 construct: purchased DiscoverX KINOMEscan scanEDGE; Eurofins Cerep SafetyScreen87
T18 sequence (P35348 whole entry): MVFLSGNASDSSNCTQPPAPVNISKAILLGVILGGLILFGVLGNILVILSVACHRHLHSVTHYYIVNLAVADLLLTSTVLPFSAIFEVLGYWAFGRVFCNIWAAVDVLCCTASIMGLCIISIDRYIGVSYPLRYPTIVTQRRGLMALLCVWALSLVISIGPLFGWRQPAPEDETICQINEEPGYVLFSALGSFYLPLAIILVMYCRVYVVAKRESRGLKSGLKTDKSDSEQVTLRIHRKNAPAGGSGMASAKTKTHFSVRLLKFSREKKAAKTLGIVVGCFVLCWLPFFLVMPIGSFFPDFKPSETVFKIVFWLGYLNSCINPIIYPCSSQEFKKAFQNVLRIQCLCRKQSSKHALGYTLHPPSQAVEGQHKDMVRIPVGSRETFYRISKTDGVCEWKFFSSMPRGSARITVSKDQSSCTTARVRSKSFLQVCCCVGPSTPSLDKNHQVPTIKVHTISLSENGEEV
Description: as §1

[22] = molecular target: T19, alpha 2B (h) (antagonist radioligand) (Homo sapiens, UniProt P18089); conditions: 1.0E-06 M, read-out: % Inhibition of Control Specific Binding (1st, 2nd, Mean)
T19 construct: purchased DiscoverX KINOMEscan scanEDGE; Eurofins Cerep SafetyScreen87
T19 sequence (P18089 whole entry): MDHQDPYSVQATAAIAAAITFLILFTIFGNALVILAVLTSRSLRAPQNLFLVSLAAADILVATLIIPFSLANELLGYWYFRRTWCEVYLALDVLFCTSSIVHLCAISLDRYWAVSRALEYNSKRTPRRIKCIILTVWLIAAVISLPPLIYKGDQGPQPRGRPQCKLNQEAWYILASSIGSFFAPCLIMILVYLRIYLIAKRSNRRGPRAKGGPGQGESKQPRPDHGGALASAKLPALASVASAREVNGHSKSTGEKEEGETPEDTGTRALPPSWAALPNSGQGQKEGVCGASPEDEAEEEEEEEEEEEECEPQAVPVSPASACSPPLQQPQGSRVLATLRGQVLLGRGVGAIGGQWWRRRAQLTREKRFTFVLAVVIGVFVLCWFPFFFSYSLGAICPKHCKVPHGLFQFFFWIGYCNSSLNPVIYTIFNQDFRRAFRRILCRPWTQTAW
Description: as §1

[23] = molecular target: T20, beta 1 (h) (agonist radioligand) (Homo sapiens, UniProt P08588); conditions: 1.0E-06 M, read-out: % Inhibition of Control Specific Binding (1st, 2nd, Mean)
T20 construct: purchased DiscoverX KINOMEscan scanEDGE; Eurofins Cerep SafetyScreen87
T20 sequence (P08588 whole entry): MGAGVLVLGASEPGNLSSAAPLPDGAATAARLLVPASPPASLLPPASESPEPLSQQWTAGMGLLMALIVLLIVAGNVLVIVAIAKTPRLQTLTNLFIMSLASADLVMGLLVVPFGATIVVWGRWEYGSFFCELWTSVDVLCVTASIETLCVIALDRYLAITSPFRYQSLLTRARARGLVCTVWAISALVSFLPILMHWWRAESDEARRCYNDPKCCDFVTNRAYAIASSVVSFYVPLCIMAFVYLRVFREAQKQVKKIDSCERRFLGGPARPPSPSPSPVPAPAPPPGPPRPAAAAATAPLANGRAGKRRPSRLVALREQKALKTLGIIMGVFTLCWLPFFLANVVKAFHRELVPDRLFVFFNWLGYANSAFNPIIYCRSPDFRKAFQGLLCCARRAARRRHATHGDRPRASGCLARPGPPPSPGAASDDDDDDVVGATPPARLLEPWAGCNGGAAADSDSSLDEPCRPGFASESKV
Description: as §1

[24] = molecular target: T21, beta 2 (h) (antagonist radioligand) (Homo sapiens, UniProt P07550)
T21 construct: purchased DiscoverX KINOMEscan scanEDGE; Eurofins Cerep SafetyScreen87
Description: as §1

[25] = molecular target: T22, delta (DOP) (h) (agonist radioligand) (Homo sapiens, UniProt P41143); conditions: 1.0E-06 M; mean; read-out: % Inhibition of Control Specific Binding (1st, 2nd, Mean)
T22 construct: purchased DiscoverX KINOMEscan scanEDGE; Eurofins Cerep SafetyScreen87
Description: as §1

[26] = tested on: glycine (strychnine-sensitive) (antagonist radioligand); conditions: 1.0E-06 M, read-out: % Inhibition of Control Specific Binding (1st, 2nd, Mean)
Description: as §1

[27] = molecular target: T23, kappa (h) (KOP) (agonist radioligand) (Homo sapiens, UniProt P41145); conditions: 1.0E-06 M; mean; read-out: % Inhibition of Control Specific Binding (1st, 2nd, Mean)
T23 construct: purchased DiscoverX KINOMEscan scanEDGE; Eurofins Cerep SafetyScreen87
Description: as §1

[28] = molecular target: T24, mGluR5 (h) (agonist radioligand) (Homo sapiens, UniProt P41594); conditions: 1.0E-06 M, read-out: % Inhibition of Control Specific Binding (1st, 2nd, Mean)
T24 construct: purchased DiscoverX KINOMEscan scanEDGE; Eurofins Cerep SafetyScreen87
T24 sequence (P41594 21-1212): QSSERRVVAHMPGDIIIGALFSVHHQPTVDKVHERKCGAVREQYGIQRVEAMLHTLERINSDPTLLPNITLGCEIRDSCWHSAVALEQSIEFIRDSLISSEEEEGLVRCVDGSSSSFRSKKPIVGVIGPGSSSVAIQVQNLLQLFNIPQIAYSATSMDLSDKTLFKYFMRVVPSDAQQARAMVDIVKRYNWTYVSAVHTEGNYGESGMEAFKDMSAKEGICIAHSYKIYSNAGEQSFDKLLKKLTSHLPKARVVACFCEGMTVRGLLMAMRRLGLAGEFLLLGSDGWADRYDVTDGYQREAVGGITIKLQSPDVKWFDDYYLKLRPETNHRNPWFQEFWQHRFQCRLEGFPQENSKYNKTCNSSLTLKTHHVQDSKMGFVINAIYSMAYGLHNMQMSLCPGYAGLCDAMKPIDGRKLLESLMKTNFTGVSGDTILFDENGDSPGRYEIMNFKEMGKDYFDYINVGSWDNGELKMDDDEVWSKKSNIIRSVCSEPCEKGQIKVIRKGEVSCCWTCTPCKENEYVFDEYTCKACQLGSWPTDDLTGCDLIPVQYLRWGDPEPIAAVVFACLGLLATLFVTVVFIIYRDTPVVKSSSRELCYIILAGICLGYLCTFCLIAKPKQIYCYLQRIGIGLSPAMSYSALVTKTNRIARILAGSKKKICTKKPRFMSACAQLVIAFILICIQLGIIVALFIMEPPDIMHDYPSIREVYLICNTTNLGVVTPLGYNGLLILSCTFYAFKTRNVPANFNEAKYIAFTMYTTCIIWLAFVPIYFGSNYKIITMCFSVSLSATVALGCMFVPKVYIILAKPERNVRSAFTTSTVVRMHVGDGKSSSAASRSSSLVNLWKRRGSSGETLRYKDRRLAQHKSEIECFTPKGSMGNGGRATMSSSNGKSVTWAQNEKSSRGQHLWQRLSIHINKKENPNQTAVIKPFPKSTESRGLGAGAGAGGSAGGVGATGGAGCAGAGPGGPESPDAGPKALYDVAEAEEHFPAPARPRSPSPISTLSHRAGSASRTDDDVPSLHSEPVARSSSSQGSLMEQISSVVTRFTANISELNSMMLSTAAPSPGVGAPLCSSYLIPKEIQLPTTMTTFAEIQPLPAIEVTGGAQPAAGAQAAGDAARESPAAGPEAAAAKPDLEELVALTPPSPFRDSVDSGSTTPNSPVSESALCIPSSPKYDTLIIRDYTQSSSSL
Description: as §1

[29] = 1.0E-06 M; read-out: % Inhibition of Control Specific Binding (1st, 2nd, Mean)
[30] = read-out: % Inhibition of Control Specific Binding (1st, 2nd, Mean); 1.0E-06 M

CNc1ccc(NCCc2ccccc2OC)cc1.Cl [KDS12025, N^1-(2-methoxyphenethyl)-N^4-methylbenzene-1,4-diamine hydrochloride salt]
activity [1]: 62.4%
activity [2]: 90.8%
activity [3]: 81.8%
activity [4, 29]: 99.4%
activity [4, 30]: 104%
activity [5, 29]: 90.4%
activity [5, 30]: 88.2%
activity [6, 29]: 83.3%
activity [6, 30]: 91.8%
activity [7, 29]: 118%
activity [7, 30]: 104%
activity [8]: 87.1%
activity ([9]; mean): 61.9%
activity [9]: 64% and 59.8%
activity ([10]; mean): 96%
activity [10]: 101% and 91.1%
activity ([11]; mean): 95.1%
activity [11]: 92.4% and 97.8%
activity [12]: 88.2%
activity [13]: 98.4%
activity [14]: 91.2%
activity ([15]; mean): 98.7%
activity [15]: 97.8% and 99.6%
activity ([16]; mean): 74.5%
activity [16]: 83.6% and 65.5%
activity [17]: 106%
activity [18]: 104%
activity [19]: 104%
activity [20, 29]: 101%
activity [20, 30]: 98.6%
activity ([21]; mean): 87.1%
activity [21]: 87.6% and 86.5%
activity ([22]; mean): 84.2%
activity [22]: 81.9% and 86.6%
activity ([23]; mean): 90.5%
activity [23]: 86.7% and 94.3%
activity [24, 29]: 104%
activity [24, 30]: 96.8%
activity [25]: 79.7%
activity ([26]; mean): 118%
activity [26]: 117% and 118%
activity [27]: 82.7%
activity ([28]; mean): 115%
activity [28]: 114% and 116%
